In PMC8824275, “Gastrointestinal Stability and Cytotoxicity of Bacteriocins From Gram-Positive and Gram-Negative Bacteria: A Comparative in vitro Study” (Frontiers in Microbiology, 2022):
Values after ≈ are worked out from the molar mass of the structure shown. Where two headings read alike, the source gives them in different places.

Columns and labels:
L. ivanovii HPB 28 = type: cell-based, Listeria ivanovii; settings: for Total activity: broth microdilution
Excerpt: Microcin J25 was produced by Escherichia coli MC4100 carrying the plasmid PTUC 202 ([Solbiati et al., 1999]). For the antibacterial activity of pure compounds and digestion mixture, Listeria ivanovii HPB28 (Canada Health Protection Branch) was used as indicator strain for nisin and pediocin PA-1, while Staphylococcus aureus ATCC 6538 (ATCC) and Salmonella enterica subsp. enterica serovar Newport ATCC 6962 (later referred to as S. Newport, ATCC) were used as indicator strains for bactofencin A (M14L, M18L) and microcin J25, respectively. L. ivanovii HPB28 and S. aureus were cultured in Tryptic Soy (Difco Laboratories, Spark, MD, United States) supplemented with 0.6% yeast extract (TSBYE), at 30 and 37°C, respectively. S. Newport was cultured at 37°C overnight in Luria-Bertani (LB) (Difco Laboratories, Spark, MD, United States). All strains were maintained at –80°C as stock cultures in their corresponding culture media supplemented with 20% glycerol, and propagated twice at 24 h intervals before use.
Quantitative determination of inhibitory activity of bacteriocins was carried out using the broth microdilution method as described by [Ben Said et al. (2020)]. Two-fold serial dilutions of bacteriocins (125 μL) were prepared in an appropriate medium in a clear 96-well flat-bottom microtiter plate. Indicator strains were diluted to 10^5 CFU/mL, from which 50 μL were added to each well. The microtiter plates were incubated for 24 h under appropriate conditions, and optical densities were recorded at 595 nm (Infinite M200, Tecan, Switzerland). Control wells contained untreated culture and appropriate medium (blanks). The number of inhibition wells was noted and inhibition activities were calculated in μg/mL.

rat erythrocytes = assay: Hemolytic activity; type: cell-based; settings: 45 min, 37°C
Description: The experiment was performed after prior approval from the local ethics committee by TransBIOTech laboratory. Hemolytic potential of bacteriocins was evaluated according to [FDA (2005)]. Rat blood was collected into a heparinized tube and added in a 1:1 volume (100 μL) to serially diluted compounds (in 100 μL PBS), in a conical 96-well plate. 10% Triton X-100 and PBS were used as a positive and negative controls, respectively. The plates were sealed and incubated for 45 min at 37°C prior to centrifugation at 2,000 g for 10 min to pellet red blood cells. The supernatant was then transferred into clear 96-well plates and the absorbance was read at 540 nm (hemoglobin). The percentage of hemolysis was calculated as follow, with RBC standing for red blood cells:
%Hemolysis=AbsorbanceofRBCtreatedwithbacteriocins-AbsorbanceofRBCtreatedwithPBS/AbsorbanceofRBCtreatedwithTritonX100-AbsorbanceofRBCtreatedwithPBS

## C=C(NC(=O)[C@@H](NC(=O)[C@H](Cc1c[nH]cn1)NC(=O)[C@@H](NC(=O)[C@H](CO)NC(=O)[C@@H]1CS[C@@H](C)[C@H]2NC(=O)[C@H](C)NC(=O)[C@H](NC(=O)[C@H](CCCCN)NC(=O)[C@H](CCSC)NC(=O)[C@H](CC(N)=O)NC(=O)[C@@H]3CS[C@@H](C)[C@@H](NC(=O)[C@H](CCCCN)NC(=O)[C@@H]4CS[C@@H](C)[C@@H](NC(=O)[C@@H]5CSC[C@@H](NC(=O)/C(=C/C)NC(=O)[C@@H](N)[C@@H](C)CC)C(=O)N[C@@H]([C@@H](C)CC)C(=O)NC(=C)C(=O)N[C@@H](CC(C)C)C(=O)N5)C(=O)N5CCC[C@H]5C(=O)NCC(=O)N4)C(=O)NCC(=O)N[C@@H](C)C(=O)N[C@@H](CC(C)C)C(=O)N[C@@H](CCSC)C(=O)NCC(=O)N3)[C@H](C)SC[C@H](NC2=O)C(=O)N[C@@H](CC(N)=O)C(=O)N1)[C@@H](C)CC)C(C)C)C(=O)N[C@@H](CCCCN)C(=O)O [nisin Z]
L. ivanovii HPB 28; after gastric conditions (SGF, pepsin 2000 U/mL, lipase 60 U/mL, pH 3, 90 min, 37°C)
  Total activity: 3.12 AU/mL
L. ivanovii HPB 28; after oral conditions (SSF, 2 min, 37°C)
  Total activity: 3.12 AU/mL
L. ivanovii HPB 28; after small intestinal conditions (SIF, bile salt 10 mmol/L, pancreatin 100 U/mL, pH 7, 2 h, 37°C)
  Total activity: 200 AU/mL
L. ivanovii HPB 28; against L. ivanovii
  MIC: 1.65 µg/mL (≈ 0.495 µM)
L. ivanovii HPB 28; pure compound without GI digestion, 24 h, OD 595 nm
  Total activity: 3.12 AU/mL
Rat erythrocytes; 0.4 to 400 μg/mL
  Concentration above which dose-dependent increase in percentage of hemolysis was shown: higher than 50 μg/mL
Rat erythrocytes; at concentrations close to 400 μg/mL
  Hemolysis: approximately 100%
